Source: ChEMBL document CHEMBL1142532, “Modular synthesis of non-peptidic bivalent NPY Y1 receptor antagonists” (Bioorg Med Chem, 2008)

Assays:
[1] = target: T1, Neuropeptide Y receptor type 1 (Homo sapiens, UniProt P25929); assay: Displacement of NG-([2,3-3H]propionyl)-BIBP-3226 from NPY Y1 receptor in human SK-N-MC cells; format: cell-based
T1 sequence (P25929 whole entry): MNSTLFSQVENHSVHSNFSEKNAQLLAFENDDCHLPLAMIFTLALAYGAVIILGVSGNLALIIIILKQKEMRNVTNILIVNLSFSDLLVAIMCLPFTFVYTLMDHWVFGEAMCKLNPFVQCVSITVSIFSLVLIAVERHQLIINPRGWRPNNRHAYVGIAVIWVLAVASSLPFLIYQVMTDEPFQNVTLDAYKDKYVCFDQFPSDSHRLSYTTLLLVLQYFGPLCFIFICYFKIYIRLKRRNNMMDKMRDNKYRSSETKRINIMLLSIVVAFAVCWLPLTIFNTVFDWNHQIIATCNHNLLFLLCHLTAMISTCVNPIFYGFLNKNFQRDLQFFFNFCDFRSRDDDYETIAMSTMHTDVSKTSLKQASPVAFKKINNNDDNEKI

[2] = target: T2, Neuropeptide Y receptor type 1 (Homo sapiens) (UniProt P25929); assay: Antagonist activity at NPY Y1 receptor in HEL cells assessed as inhibition of NPY-induced increase in intracellular calcium mobilization by Fura-2 assay; format: functional, cell-based
T2 sequence (whole entry): T1 sequence (P25929 whole entry)

Row | Compound | Ki [1] [nM] | Kb [2] [nM]
1 | N/C(=N/C(=O)CCCn1cc(-c2ccccc2)nn1)NCCC[C@@H](NC(=O)C(c1ccccc1)c1ccccc1)C(=O)NCc1ccc(O)cc1 | 49 | 0.9
2 | N/C(=N/C(=O)c1ccc(Cn2cc(CN(Cc3cn(Cc4ccc(C(=O)/N=C(/N)NCCC[C@@H](NC(=O)C(c5ccccc5)c5ccccc5)C(=O)NCc5ccc(O)cc5)cc4)nn3)Cc3cn(Cc4ccc(C(=O)/N=C(/N)NCCC[C@@H](NC(=O)C(c5ccccc5)c5ccccc5)C(=O)NCc5ccc(O)cc5)cc4)nn3)nn2)cc1)NCCC[C@@H](NC(=O)C(c1ccccc1)c1ccccc1)C(=O)NCc1ccc(O)cc1 | > 50000 | –

More lines, now with the values ahead:

Row | Ki [1] [nM] | Kb [2] [nM] | Compound
3 | 6.1 | 7 | N/C(=N/C(=O)COCCOCCOCC(=O)/N=C(\N)NCCC[C@@H](NC(=O)C(c1ccccc1)c1ccccc1)C(=O)NCc1ccc(O)cc1)NCCC[C@@H](NC(=O)C(c1ccccc1)c1ccccc1)C(=O)NCc1ccc(O)cc1
4 | 58 | 1.8 | N/C(=N/C(=O)CCCn1cc(COCCOCCOCCOCCOCc2cn(CCCC(=O)/N=C(\N)NCCC[C@@H](NC(=O)C(c3ccccc3)c3ccccc3)C(=O)NCc3ccc(O)cc3)nn2)nn1)NCCC[C@@H](NC(=O)C(c1ccccc1)c1ccccc1)C(=O)NCc1ccc(O)cc1
5 | 43 | 0.6 | N/C(=N/C(=O)CCCn1cc(-c2ccc(-c3cn(CCCC(=O)/N=C(\N)NCCC[C@@H](NC(=O)C(c4ccccc4)c4ccccc4)C(=O)NCc4ccc(O)cc4)nn3)cc2)nn1)NCCC[C@@H](NC(=O)C(c1ccccc1)c1ccccc1)C(=O)NCc1ccc(O)cc1
